Columns and labels:
MEF = test: Cytotoxicity WST-1 assay on MEF; assay type: cell-based, mouse; conditions: Mus musculus, 96 h, read-out: EC50 in µM ± SD
Excerpt: (§1) Four cell lines of various origins were used to evaluate the cytotoxicity of our target compounds 5–7. The selected cell lines were (i) NIH-3T3, a cell line originally established from the primary mouse embryonic fibroblast cells, (ii) MEF, primary mouse embryonic fibroblasts (used at their early passages) prepared as previously described, (iii) WI-38, a human diploid cell line derived from normal embryonic lung tissue, and (iv) HEK293T, a transformed variant of the human embryonic kidney cell line HEK293. After 96 h, cytotoxicity was evaluated using the WST-1 assay. […] Seventeen compounds were evaluated on the cell lines and then compared to TBB used as a standard. […]. All cells were grown in DMEM medium supplemented with 10% fetal calf serum, glutamine (2 mM), penicillin (100 U/mL), and streptomycin (50 μg/mL) at 37 °C under a humidified 5% CO2 atmosphere (Gibco). The assays were performed in sterile 96-wells microtiter plates (Falcon). Cells were plated at 500 (NIH-3T3), 750 (WI-38) or 1000 (MEF; HEK293T) cells/100 µL/well. Drug solutions (10 μL per well) of appropriate concentration (prepared by dilution in the culture medium from 2 mM stock acetonitrile solution) were added 24 h after cell seeding. For ellagic acid and emodin, DMSO was used to prepare the stock solution. After 96 h, the cytotoxicity is evaluated using the Cell Proliferation Reagent WST-1 following the procedure described by the manufacturer (Roche Applied Science). The drugs were assayed at 10, 5, 1, 0.2 and 0.04 µM in triplicate. The vehicle was used as control. The experiments were repeated three times.

human CK2 holoenzyme [1] = target: T1, human CK2 holoenzyme (Homo sapiens, UniProt P68400); test: biochemical; conditions: average percent inhibition at 10 µM
T1 sequence (P68400 whole entry): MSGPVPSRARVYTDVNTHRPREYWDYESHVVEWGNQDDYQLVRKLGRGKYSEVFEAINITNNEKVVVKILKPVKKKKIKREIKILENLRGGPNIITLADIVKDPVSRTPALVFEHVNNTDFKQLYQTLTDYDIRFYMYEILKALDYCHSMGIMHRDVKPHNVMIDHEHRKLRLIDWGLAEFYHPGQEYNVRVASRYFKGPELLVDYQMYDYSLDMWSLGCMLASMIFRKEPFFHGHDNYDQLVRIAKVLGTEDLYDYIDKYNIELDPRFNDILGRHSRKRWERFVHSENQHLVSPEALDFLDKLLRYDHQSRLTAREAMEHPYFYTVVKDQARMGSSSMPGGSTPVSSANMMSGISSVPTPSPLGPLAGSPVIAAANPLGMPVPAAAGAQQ
T1 sequence (P67870 whole entry partner): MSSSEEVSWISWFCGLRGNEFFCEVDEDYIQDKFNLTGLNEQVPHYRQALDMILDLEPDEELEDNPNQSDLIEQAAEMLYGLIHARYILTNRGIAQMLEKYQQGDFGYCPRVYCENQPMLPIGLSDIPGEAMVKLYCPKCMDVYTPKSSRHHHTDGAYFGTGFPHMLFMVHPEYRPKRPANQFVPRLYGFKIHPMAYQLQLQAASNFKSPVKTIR

NIH-3T3 = test: Cytotoxicity WST-1 assay on NIH-3T3; assay type: cell-based, mouse; conditions: Mus musculus, NIH3T3, 96 h, read-out: EC50 in µM ± SD
Excerpt: as §1

human CK2 holoenzyme [2] = target: T1, human CK2 holoenzyme; conditions: read-out: IC50 ± SD, assay buffer with 100 µM ATP
WI-38 = test: Cytotoxicity WST-1 assay on WI-38; assay type: cell-based, human; conditions: Homo sapiens, WI-38, 96 h, read-out: EC50 in µM ± SD
Excerpt: as §1

[3] = Cytotoxicity WST-1 assay, statements over the four cell lines; assay type: cell-based; conditions: mouse (NIH-3T3, MEF) and human (WI-38, HEK293T), WST-1, cell line not specified, read-out: EC50 (cytotoxic activity, over the cell lines)
Excerpt: as §1

HEK293T = test: Cytotoxicity WST-1 assay on HEK293T; assay type: cell-based, human; conditions: Homo sapiens, HEK-293T, 96 h, read-out: EC50 in µM ± SD
Excerpt: as §1

[4] = tested on: tumor cell lines (5637, SISO, KYSE-70, MCF-7, LCLC, A427); conditions: cited from earlier work

SMILES | EC50 (MEF) [µM] | inhibition at 10 µM (human CK2 holoenzyme [1]) [%] | EC50 (NIH-3T3) [µM] | IC50 (human CK2 holoenzyme [2]) [µM] | EC50 (WI-38) [µM] | EC50 at 96 h [3] [µM] | EC50 (HEK293T) [µM] | growth of tumor cell lines [4]
Cc1cc(=O)c2c(c1=O)c1c(=O)c3ccccc3c1n2C(C)C [Compound 7f, 5-Isopropyl-8-methyl-5H-indeno[1,2-b]indole-6,9,10-trione] | > 10 | 72 | > 10 | 4.9 ± 0.54 | > 10 | 0.4 to 8.8 | 4.4 ± 2.2 | –
CC(C)n1c2c(=O)ccc(=O)c2c2c(=O)c3ccccc3c21 [Compound 7h, 5-isopropyl-5H-indeno[1,2-b]indole-6,9,10-trione] | – | – | – | – | – | – | – | inhibited the growth

— article PMC4491662, “Synthesis, Biological Evaluation and Molecular Modeling of Substituted Indeno[1,2-b]indoles as Inhibitors of Human Protein Kinase CK2” (Pharmaceuticals, 2015)
